Test results: patent US12263144B2, “Methods of treating IgA nephropathy with thiol-containing molecules” (Accubit LLC—Biotechnology, priority 2020, dated 2025)

Legend:
Type in all cases: biochemical
Human rIgA1 (poly-rIgA) = target: T1, Human rIgA1 (poly-rIgA) (Homo sapiens, UniProt P01876); experiment: SEC of human rIgA (HEK293-produced) after treatment; conditions: human rIgA from HEK293 cells, FIG. 5 B
T1 construct: IL-2 signal peptide (N, cleaved yes); 6xHis (N); made in house; host or cells: HEK293
Procedure: (§1) The overall complex size of IgA aggregates was determined either by size-exclusion chromatography (SEC: Superdex 200 Increase 10/300 by GL Cytiva), or by SDS-PAGE. For evaluating the involvement of intermolecular disulfide connectivity in IgA complexes, IgA samples were treated with either reducing agents, such as DTT, TCEP or reduced glutathione (Sigma), or interventional drugs, such as cysteamine (Sigma), WR-1065 (Sigma) and N-Acetyl-L-cysteine (VWR Chemicals) in phosphate-buffered saline (PBS) pH7.4. Before running on SEC, samples were treated with the drugs at indicated concentrations at 37° C. for one hour.
In the meantime, the SEC column was also equilibrated with PBS supplemented with the reducing agent at the same concentration. For running SEC, 100 μL of the recombinant IgA (concentration varies between 1 mg/mL and 8 mg/mL) or purified native human IgA1 (˜1 mg/mL) was loaded to the column and UV absorption was recorded following elution. Recombinant IgA typically formed two elution peaks: a minor peak of ˜800 kDa poly-rIgA followed by a major peak of ˜170 kDa of monomeric rIgA. The ratios between poly-rIgA and mono-rIgA were calculated as between the corresponding areas under the curve (AUC), and the treatment effect of the thiol agents was judged by the reduction of the poly-rIgA level with a compensatory increase of the mono-rIgA content. […]

rat poly-rIgA = experiment: Nonreducing SDS-PAGE analysis of rat poly-rIgA after pretreatment; conditions: cysteamine 0 to 10 mM; TCEP 10 mM; untreated poly-IgA >250 kDa
Procedure: (§2) Proteins in sample buffer (Bio-Rad Laboratories, Hercules, CA, USA) with or without TCEP (for reducing or nonreducing condition, respectively) were resolved by 4-12% SDS-PAGE (Bio-Rad Laboratories). IgA bands were subsequently visualized either by staining with GelCode Blue (Thermo Fisher Scientific), or by Western blotting on PVDF membrane. For Western blotting, 5% non-fat milk was used in blocking for one hour at room temperature. The membrane was then incubated with mouse anti-Histag antibody (Thermo Scientific), or HRP-conjugated goat anti-rat IgA α-chain antibody (Cat. ab97185, Abcam, UK), or goat anti-human IgA HRP antibody (Cat: 2050-05, SouthernBiotech) for detecting rat or human IgA (Fc), respectively. The membrane was developed using the Clarity™ ECL substrate (Bio-Rad Laboratories, CA, USA).
To further ascertain the mechanism-of-action of cysteamine in targeting disulfides, nonreducing SDS-PAGE analysis was performed of rat poly-rIgA (FIG. 5, part D). The samples were pretreated with 0 to 10 mM cysteamine, or 10 mM TCEP as positive control. As expected, poly-IgA appeared as >250 kDa bands on SDS-PAGE. Dose-dependent response of poly-rIgA to cysteamine was evident, with majority of the protein running at ˜64 kDa of disaggregated monomers.

[1] = tested on: natural IgA1 assembly (two heavy chains and two light chains connected via disulfide bonds); experiment: Ex vivo study: integrity of natural IgA assembly under thiol/reducing agents
Procedure: as §1, §2

T1 sequence (P01876 121-353 isoform P01876-1): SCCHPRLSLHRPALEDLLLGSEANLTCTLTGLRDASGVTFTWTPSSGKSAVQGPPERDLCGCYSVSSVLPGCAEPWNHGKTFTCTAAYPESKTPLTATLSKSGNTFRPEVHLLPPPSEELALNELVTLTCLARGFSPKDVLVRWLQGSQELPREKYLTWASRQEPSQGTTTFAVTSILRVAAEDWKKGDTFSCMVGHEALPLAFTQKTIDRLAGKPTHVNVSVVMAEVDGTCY

- poly-rIgA level (SEC) (Human rIgA1 (poly-rIgA)): reduction of poly-rIgA levels
Structure (SMILES): NCCS [cysteamine]
- molecular weight of protein band after pretreatment (nonreducing SDS-PAGE) (rat poly-rIgA): ~64 kDa
- disruption of natural IgA assembly / normal pairing of IgA heavy chains [1]: did not cause unwanted disruption of natural IgA1 assembly
